Values joined by “and” are separate entries in the source; they are usually repeats but may differ in a detail not shown here. Equal entries are not always repeated.
What was measured:
collagen I = experiment: Immunohistochemical analysis of collagen I in porcine IVD; assay type: in vivo; settings: pig, LA 60 mg/mL, treated vs untreated IVDs
Experimental: Since effects of LA on the NP in the subsequent clinical study was planned to be assessed using MRI, the third series focused on the effects of LA (0.2 mL, 60 mg/mL) on sclerotization as measured by T2-weighted MRI. In addition, effects of LA on the expression of collagen I and II were studied by immunohistochemistry (IHC). The macroscopic changes after LA at 60 mg/mL were similar to those described above. The tissue was dehydrated in graded ethanol and embedded in paraffin. Sections were cut on a microtome, dewaxed, and incubated with polyclonal primary antibodies against collagen I (Abcam 34710) or II (Abcam 34712). The antibodies were diluted 250 (collagen I) or 200 (collagen II) times in phosphate-buffered saline containing 1% bovine serum albumin. Incubation was done at room temperature for 60 min. The sections were then incubated for 30 min at room temperature with horseradish peroxidase-conjugated secondary antibodies (Mach 2 Uni HRP, Biocare Medical) and immunoreactivity was visualized using diaminobenzidine (Biocare Medical).

[1] = test system: NP and disc height of patients' IVDs; experiment: Clinical study, T2-weighted MRI of NP intensity and disc height; assay type: in vivo, human; parameters: key to Individual scoring of change in NP intensity, Assessor No. 1 / Individual scoring of change in NP intensity, Assessor No. 2 / Individual scoring of change in NP intensity, Assessor No. 3 / Individual scoring of change in NP intensity, Assessor No. 4: 1, clear reduction; 0, no change; settings: for NP intensity change score at T2-weighted MR imaging, Mean ± SD: score 1 clear reduction, 0 no change, 4 assessors
Experimental: The study was a randomized, double-blinded, placebo-controlled, single ascending dose study with the primary objective to evaluate safety and tolerability following intradiscal injection of LA in Omnipaque or placebo (Omnipaque) in 15 patients with chronic discogenic low back pain. The secondary objective was to assess effects on the NP and disc height using T2-weighted MRI.
All MRI investigations were performed using the same scanner (Siemens 1.5 T Avanto) with the following exceptions: Baseline MRI for one placebo-treated patient and 2 patients given the high dose was acquired in a Siemens Symphony 1.5 T scanner while all other scans were done in the Siemens 1.5 T Avanto scanner. Also, baseline and 3 month MRI were done in the Symphony scanner while the other scans were done in the Avanto scanner in 2 placebo-treated patients and one patient treated with the high dose. T1- and T2-weighted sagittal, coronal, and transversal sections were acquired at 4 mm before and after injection of gadolinium contrast.
Disc height measured as the maximal distance between 2 adjacent endplates and Pfirrmann grade were documented at screening and they were followed throughout the study. Since the Pfirrmann criteria are not sensitive enough to detect minor changes in disc hydration, changes in intensity of the NP at T2-weighted MRI were scored by 4 assessors blind to the group assignment of the patients. The assessors were instructed to score no change as “0” and obvious reduction in intensity as “1”, regardless of time after treatment.
Changes in intensity of the NP at T2-weighted MR imaging were scored as 1, clear reduction and 0, no change. The scoring was done by 4 assessors blind to the group assignment of the patients. Reductions in disc height were observed throughout the study (Table 8).

[2] = LA concentration 30, individual patients and IVDs
[3] = LA concentration 60, individual patients and IVDs
[4] = LA concentration 120, individual patients and IVDs

CC(O)C(=O)O (centres unmarked) [LA, lactic acid]
Collagen I immunoreactivity in the NP (collagen I): strongly induced | NP intensity change score, Median ([1]; LA 30 mg/mL): 0 | Disc height change from baseline (mm) Mean ± SD ([1]; LA 30 mg/mL, 3 months): 0.3 ± 1.3 mm | Disc height change from baseline (mm) Mean ± SD ([1]; LA 30 mg/mL, 6 months): −0.5 ± 0.7 mm | Disc height change from baseline (mm) Mean ± SD ([1]; LA 30 mg/mL, 12 months): −0.5 ± 0.7 mm | NP intensity change score at T2-weighted MR imaging, Mean ± SD ([1]; LA 30 mg/mL): 0.4 ± 0.5 | NP intensity change score, Median ([1]; LA 60 mg/mL): 1 | Disc height change from baseline (mm) Mean ± SD ([1]; LA 60 mg/mL, 3 months): −1.0 ± 0.7 mm | Disc height change from baseline (mm) Mean ± SD ([1]; LA 60 mg/mL, 6 months): −0.8 ± 0.8 mm | Disc height change from baseline (mm) Mean ± SD ([1]; LA 60 mg/mL, 12 months): −1.2 ± 0.8 mm | NP intensity change score at T2-weighted MR imaging, Mean ± SD ([1]; LA 60 mg/mL): 1.0 ± 0.0 | NP intensity change score, Median ([1]; LA 120 mg/mL): 1 | Disc height change from baseline (mm) Mean ± SD ([1]; LA 120 mg/mL, 3 months): −1.2 ± 1.1 mm | Disc height change from baseline (mm) Mean ± SD ([1]; LA 120 mg/mL, 6 months): −1.4 ± 1.1 mm | Disc height change from baseline (mm) Mean ± SD ([1]; LA 120 mg/mL, 12 months): −1.8 ± 1.3 mm | NP intensity change score at T2-weighted MR imaging, Mean ± SD ([1]; LA 120 mg/mL): 0.9 ± 0.3 | Individual scoring of change in NP intensity, Assessor No. 1 [1, 2]: 0 (2×) and 1 (2×) | Individual scoring of change in NP intensity, Assessor No. 2 [1, 2]: 0 (3×) and 1 | Individual scoring of change in NP intensity, Assessor No. 3 [1, 2]: 0 (2×) and 1 (2×) | Individual scoring of change in NP intensity, Assessor No. 4 [1, 2]: 0 (2×) and 1 (2×) | Individual scoring of change in NP intensity, Assessor No. 1 [1, 3]: 1 | Individual scoring of change in NP intensity, Assessor No. 2 [1, 3]: 1 | Individual scoring of change in NP intensity, Assessor No. 3 [1, 3]: 1 | Individual scoring of change in NP intensity, Assessor No. 4 [1, 3]: 1 | Individual scoring of change in NP intensity, Assessor No. 1 [1, 4]: 1 | Individual scoring of change in NP intensity, Assessor No. 2 [1, 4]: 1 (3×) and 0 (2×) | Individual scoring of change in NP intensity, Assessor No. 3 [1, 4]: 1 | Individual scoring of change in NP intensity, Assessor No. 4 [1, 4]: 1 | % decrease in disc height ([1]; lactic acid 30 mg/mL, 3 months): +3% | % decrease in disc height ([1]; lactic acid 30 mg/mL, 6 months): 5% | % decrease in disc height ([1]; lactic acid 30 mg/mL, 12 months): 5% | % decrease in disc height ([1]; lactic acid 60 mg/mL, 3 months): 11% | % decrease in disc height ([1]; lactic acid 60 mg/mL, 6 months): 8% | % decrease in disc height ([1]; lactic acid 60 mg/mL, 12 months): 13% | % decrease in disc height ([1]; lactic acid 120 mg/mL, 3 months): 11% | % decrease in disc height ([1]; lactic acid 120 mg/mL, 6 months): 12% | % decrease in disc height ([1]; lactic acid 120 mg/mL, 12 months): 16% | Change in IVD width ([1]; patients, after treatment (not shown)): no change in IVD width

— patent US20240415790A1, “A COMPOSITION FOR USE IN THE TREATMENT OF INTERVERTEBRAL DISC HERNIATION” (STAYBLE THERAPEUTICS AB, priority 2020, published 2024)
